Data reported in US9696306B2, “Methods of reducing levels of tau” (The Trustees of Columbia University in the City of New York, priority 2011, dated 2017).

Experiments:
Type in all cases: cell-based, mouse
Aβ42 = Aβ42 detection by human specific ELISA in conditioned medium of Tg2576 mES cell derived neurons; conditions: for secretion of Aβ42: Tg2576 ES cell derived neurons, conditioned medium; for IC50: optimized 96 well platform, 24 hours
Text: (§1) The reliable detection of proteolytic derivatives of APP, including AP, is critical for a physiologically relevant cell based AD model. It was established that ES cell-derived pyramidal neurons express the major proteolytic enzymes mediating APP processing, β-site APP cleaving enzyme (BACE1) and presenilin 1 (PS1) (FIG. 2a). Endogenous APP, BACE1 and PS1 were abundantly detected in ES cell-derived pyramidal neurons at DIV 7, 14, 21. APP and BACE1 were not detected in ES cells, but PS1 was detectable consistent with it's described role in development (Wong, P. C. et al. Nature 387, 288-292 (1997)). To achieve robust and reproducible neuronal expression of human APP, ES cells from the inner cell mass of blastocysts were isolated from a well characterized mouse model of AD, Tg2576. Tg2576 mice express human APP, harboring the Swedish mutation (APPsw) under the control of hamster PrP promoter (Hsiao, K. et al. Science 274, 99-102 (1996)). […] In Tg2576 ES cell derived neurons, APP cleavage products were readily detectable. C-terminal APP fragments (CTFs) were detected in the neuronal lysate by Western blot analysis (FIG. 2b). Both human β- and α-secretase-derived secreted soluble APP (sAPPβ and sAPPα, respectively) were detected using immunoprecipitation of conditioned medium with sβsw and Aβ levels were detected in conditioned media using a human Aβ specific ELISA (FIG. 2b-e). […] Consistent with previous studies in cell models and mouse brain, CTFs resulting from APP cleavage, accumulated in response to γ-secretase inhibitor treatment (FIG. 2b). Identical results were seen when neurons were infected with an APPsw Lenti virus and APP processing was analyzed (FIG. 6a-c). […] Thus, these neurons are suitable for lentiviral mediated genetic manipulation studies.
(§2) To accommodate high-throughput screening, Aβ detection assays using the Tg2576 mES cell derived neurons were miniaturized for a 96 well platform. […] It was determined that the optimal cell density of 1.5×10^5 cells/cm^2 maximized the cell viability signal. […]
(§3) Day 12-30 neurons were infected with a lentivirus carrying the Swedish variant of human APP (pLenti6/hAPPsw). […] The levels of Aβ42 and Aβ40 in conditioned media were determined using sandwich ELISA (Invitrogen) according to the manufacturer's protocol. Total Aβ was detected by immunoprecipitating conditioned medium with 6E10 (Covance) or 7N22 (Invitrogen) antibodies overnight at 4° C. Samples were separated using the NuPAGE gel system and Aβ peptides detected by quantitative Western blotting with 6E10. Full-length APP was detected by Western blot analysis using 6E10 (Covance) or polyclonal antibody against the C-terminus of APP (APP-Ctmaxi) (Okada, H., et al. FASEB J. 24, 2783-94 (2010)). […]

Aβ40 = Aβ40 detection by human specific ELISA in conditioned medium of Tg2576 mES cell derived neurons; conditions: for secretion of Aβ40: Tg2576 ES cell derived neurons, conditioned medium; for IC50: optimized 96 well platform, 24 hours
Text: as §1, §2, §3

sAPPβ = experiment: Immunoprecipitation/Western blot of secreted sAPPβ from conditioned medium of Tg2576 ES cell derived neurons
Text: (§4) The reliable detection of proteolytic derivatives of APP, including AP, is critical for a physiologically relevant cell based AD model. It was established that ES cell-derived pyramidal neurons express the major proteolytic enzymes mediating APP processing, β-site APP cleaving enzyme (BACE1) and presenilin 1 (PS1) (FIG. 2a). Endogenous APP, BACE1 and PS1 were abundantly detected in ES cell-derived pyramidal neurons at DIV 7, 14, 21. APP and BACE1 were not detected in ES cells, but PS1 was detectable consistent with it's described role in development (Wong, P. C. et al. Nature 387, 288-292 (1997)). […] In Tg2576 ES cell derived neurons, APP cleavage products were readily detectable. C-terminal APP fragments (CTFs) were detected in the neuronal lysate by Western blot analysis (FIG. 2b). Both human β- and α-secretase-derived secreted soluble APP (sAPPβ and sAPPα, respectively) were detected using immunoprecipitation of conditioned medium with sβsw and Aβ levels were detected in conditioned media using a human Aβ specific ELISA (FIG. 2b-e). […] Identical results were seen when neurons were infected with an APPsw Lenti virus and APP processing was analyzed (FIG. 6a-c). […]
(§5) Day 12-30 neurons were infected with a lentivirus carrying the Swedish variant of human APP (pLenti6/hAPPsw). […] Samples were separated using the NuPAGE gel system and Aβ peptides detected by quantitative Western blotting with 6E10. […]

APP-CTF = experiment: Western blot of C-terminal APP fragments (CTFs) in lysate of Tg2576 ES cell derived neurons; conditions: neuronal lysate
Text: as §4, §5

sAPPα = experiment: Immunoprecipitation/Western blot of secreted sAPPα from conditioned medium of Tg2576 ES cell derived neurons
Text: as §4, §5

tau = experiment: Assay for tau: Western blot of tau isoforms in wild type mES cell-derived pyramidal neurons; parameters: key: *: asterisk denotes hit compounds; conditions: 1 uM; treated at 14 DIV for 48 hr; Western blot (CP13, PHF)
Experimental: In certain embodiments, the inhibitor of the present invention is identified by an assay directed to detecting inhibitors of tau phosporylation. For example, but not by way of limitation, such assays can include assays such as those prepared as follows. First, wild type, mouse embryoinc stem cells are differentiated into pyramidal neurons using the protocol described in Example 1. ES cell-derived neurons are treated at 14 DIV for 48 hr with either vehicle (D, DMSO) or various histone demethylase inhibitors (inhibitor compounds 1-10). Tau isoforms are detected by Western blot analysis of the cell lysates using the indicated antibodies, See FIG. 11. CP13 recognizes tau phosphorylation at ser202/205. PHF recognizes tau phosphorylation at ser396/404. TUJ1 (Neuron-specific class III beta-tubulin) is used as a loading control.
Wild type, mouse embryoinc stem cells were differentiated into pyramidal neurons using the protocol described in Example 1. ES cell-derived neurons were treated at 14 DIV for 48 hr with either vehicle (D, DMSO) or various histone demethylase inhibitors (inhibitor compounds 1-10). Tau isoforms were detected by Western blot analysis of the cell lysates using the indicated antibodies, See FIG. 11. CP13 recognizes tau phosphorylation at ser202/205. PHF recognizes tau phosphorylation at ser396/404. TUJ1 (Neuron-specific class III beta-tubulin) is used as a loading control.
List of inhibitor compounds tested for their ability to inhibit levels of total tau, disease-associated phosphorylated or presence of modified forms of tau include (asterisk denotes hit compounds): *1. pargyline (LSD1 inhibitor)—1000 uM; *2. deprenyl (LSD1 inhibitor)—1000 uM; *3. propargyl (LSD1 inhibitor)—100 uM; 4. phenelzine (LSD1 inhibitor)—100 uM; 5. tranylcyprmine (LSD1 inhibitor)—200 uM; *6. S2101 (LSD1 Inhibitor II, EMD Biosciences catalog #489477)—LSD1 inhibitor—1 uM; 7. N-oxyalylglycine (NOG) (JMJD2s inhibitor)—1000 uM; *8. pyradine (JMJ2A and E inhibitor)—1000 uM; *9. disulfiram (JMJ2A inhibitor)—20 uM; *10. ebselen (JMJ2A inhibitor)—20 uM.

Row | SMILES | secretion of Aβ42 (Aβ42) | IC50 (Aβ42) | secretion of Aβ40 (Aβ40) | IC50 (Aβ40) | secretion of sAPPβ (sAPPβ) | CTFs resulting from APP cleavage (APP-CTF) | level of sAPPα (sAPPα) | ability to inhibit levels of total tau, disease-associated phosphorylated or presence of modified forms of tau (tau)
1 | C[C@@H](NC(=O)c1cc(C(=O)N[C@@H](Cc2ccccc2)[C@H](O)CNC2CC2)cc(N(C)S(C)(=O)=O)c1)c1ccccc1 [BACE inhibitor] | decreased | 7.8 nM | decreased | 44.7 nM | decreased |  |  | 
2 | C[C@H](NC(=O)Cc1cc(F)cc(F)c1)C(=O)N[C@H]1N=C(c2ccccc2)c2ccccc2N(C)C1=O [Compound E] | inhibited | 0.2 nM | inhibited | 0.2 nM | without affecting | accumulated | without affecting | 
3 | CC(C)C[C@H](CC(=O)NO)C(=O)N[C@H](C(=O)N[C@@H](C)C(=O)NCCN)C(C)(C)C [TAPI-2] |  |  |  |  |  |  | decrease | 
4 | NC1CC1c1cc(F)cc(F)c1OCc1ccccc1 (centres unmarked) [S2101] |  |  |  |  |  |  |  | *
